Patent publication US10940188B2, “Compounds and methods for treatment and prevention of Flavivirus infection” (priority 2016, dated 2021)
Several values for one entry are separate records, joined by “and”; a condition that tells them apart may be missing. Equal values may be shown once. Read-outs that look alike come from different tables or passages of the source.

What was measured:
[1] = system: ZIKV-induced cell death in SNB-19 cells; experiment: ATP cell viability assay for ZIKV-induced cell death, SNB-19 cells; type: cell-based, human
Method in brief: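 The extent of cell death caused by ZIKV infection was determined from ATP levels. Cells grew in assay plates for 16 hours at 37° C. with 5% CO2, were then given ZIKV solution and kept under the same conditions for 72 hours. ATPlite reagent was applied for 15 minutes and luminescence was read on a ViewLux plate reader. Cell-free wells defined 100% killing and uninfected cell wells defined full viability.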

[2] = system: ZIKV-induced caspase 3/7 activity in hNPCs; experiment: Caspase 3/7 activity assay, ZIKV-infected hNPCs; type: cell-based; details: for IC50: read-out: Caspase 3 (IC50, uM) NPCs; for Emax: read-out: Caspase 3 (efficacy, %) NPCs
Method in brief: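 Human NPCs, SNB-19 cells or astrocytes seeded 16 h, compound added 30 min before ZIKV, then 6 h infection at 37 °C. Caspase-Glo 3/7 luminescence after 30 min at room temperature, normalized to uninfected cells (0%) and ZIKV-infected cells (100%).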

[3] = Homo sapiens, ZIKV-infected hNPCs
[4] = Homo sapiens, SNB-19, following ZIKV infection, read-out: IC50 (μM) for improving cell viability, SNB-19
[5] = Homo sapiens, ZIKV-infected SNB-19 cells, read-out: Cell viability (IC50, uM) SNB-19
[6] = ZIKV-infected SNB-19 cells, read-out: Cell viability (IC50, uM) SNB-19

Compound: COc1cccc(-c2ccc(NC(=O)C3=C(C(=O)O)CCC3)c(F)c2)c1 [Vidofludimus]
- Cell viability (efficacy, %) SNB-19 ([1]; ZIKV-infected SNB-19 cells): 0.0%
- IC50 [2, 3]: 2.45 µM
- Emax [2, 3]: 87.8%

Compound: C[C@H](NC(=O)C(=O)Nc1ccccc1C(C)(C)C)C(=O)N[C@@H](CC(=O)O)C(=O)COc1c(F)c(F)cc(F)c1F [Emricasan]
- IC50 [1, 4]: 0.87 µM
- IC50 ([1]; Homo sapiens, SNB-19 cells, three ZIKV strains MR766, FSS13025, PRVABC59, read-out: IC50 in the cell viability assay): 0.13 to 0.9 µM
- IC50 [1, 5]: 0.87 µM
- Cell viability (efficacy, %) SNB-19 ([1]; ZIKV-infected SNB-19 cells): 194%
- IC50 [2, 3]: 0.37 µM
- Emax [2, 3]: 85.3%

Compound: CC(C(=O)O)c1ccc(C(=O)c2cccs2)cc1 (stereo not shown) [Suprofen]
- Cell viability (efficacy, %) SNB-19 ([1]; ZIKV-infected SNB-19 cells): 0.0%
- IC50 [2, 3]: 15.5 µM
- Emax [2, 3]: 59.1%

Compound: O=S(=O)(O)c1ccc2[nH]c(-c3ccccc3)nc2c1 [Ensulizole]
- Cell viability (efficacy, %) SNB-19 ([1]; ZIKV-infected SNB-19 cells): 0.0%
- IC50 ([2]; Homo sapiens): 1.38 µM
- Emax ([2]; Homo sapiens): 80.6%

Compound: N#CC1(c2ccc(NC(=O)c3cccnc3NCc3ccncc3)cc2)CCCC1 [Apatinib]
- Cell viability (efficacy, %) SNB-19 ([1]; ZIKV-infected SNB-19 cells): 0.0%
- Emax [2, 3]: 0%

Compound: O=C(Nc1ccc(C(=O)O)c(O)c1)c1ccccc1 [Benzoylpas]
- Cell viability (efficacy, %) SNB-19 ([1]; ZIKV-infected SNB-19 cells): 0.0%
- IC50 [2, 3]: 4.89 µM
- Emax [2, 3]: 85.4%

Compound: Cc1cccc(/C=C/c2ccccc2)n1 [SIB 1893]
- Cell viability (efficacy, %) SNB-19 ([1]; ZIKV-infected SNB-19 cells): 0.0%
- Caspase 3 (efficacy, %) NPCs ([2]; ZIKV-infected hNPCs): 95.2%
- IC50 ([2]; ZIKV-infected hNPCs): 8.69 µM

Compound: CN(C)CCCSc1ccccc1NC(=O)/C=C/c1ccccc1 [Cinanserin]
- IC50 [1, 5]: 19.5 µM
- Cell viability (efficacy, %) SNB-19 ([1]; ZIKV-infected SNB-19 cells): 56.9%
- IC50 [2, 3]: 17.3 µM
- Emax [2, 3]: 80.4%

Compound: Cc1ccc(O)c(-n2nc3ccccc3n2)c1 [2-(2H-Benzotriazol-2-yl)-4-methylphenol]
- Cell viability (efficacy, %) SNB-19 ([1]; ZIKV-infected SNB-19 cells): 0.0%
- IC50 [2, 3]: 4.89 µM
- Emax [2, 3]: 77.6%

Compound: O=C(O)c1ccccc1Nc1cccc(C(F)(F)F)c1 [Flufenamic acid]
- Cell viability (efficacy, %) SNB-19 ([1]; ZIKV-infected SNB-19 cells): 0.0%
- IC50 [2, 3]: 17.3 µM
- Emax [2, 3]: 68.1%

Compound: O=C1c2ccccc2C(=O)c2c1ccc(O)c2O [Alizarin]
- Cell viability (efficacy, %) SNB-19 ([1]; ZIKV-infected SNB-19 cells): 0.0%
- IC50 [2, 3]: 21.8 µM
- Emax [2, 3]: 58.5%

Compound: Vitamin B12
- IC50 [1, 6]: 0.12 µM
- Caspase 3 (efficacy, %) NPCs ([2]; ZIKV-infected hNPCs): 94.7% and 59.1%
- IC50 ([2]; ZIKV-infected hNPCs): 6.9 µM and 11.3 µM

Compound: CC(=O)Nc1ccc([C@H](C)C(=O)Nc2ncc(C(C)C)s2)cc1 [PHA-690509]
- Cell viability (efficacy, %) SNB-19 ([1]; ZIKV-infected SNB-19 cells): 165%
- IC50 [1, 6]: 10.9 µM
- IC50 ([1]; following ZIKV infection, read-out: IC50 (μM) for improving cell viability, SNB-19): 10.1 µM
- Caspase 3 (efficacy, %) NPCs ([2]; ZIKV-infected hNPCs): 73.0%
- IC50 ([2]; ZIKV-infected hNPCs): 19.5 µM

Compound: CN1CC(=O)NC1=NC(=O)Nc1cccc(Cl)c1 [Fenobam]
- Cell viability (efficacy, %) SNB-19 ([1]; ZIKV-infected SNB-19 cells): 60.5%
- IC50 [1, 6]: 1.73 µM
- Caspase 3 (efficacy, %) NPCs ([2]; ZIKV-infected hNPCs): 108%
- IC50 ([2]; ZIKV-infected hNPCs): 5.48 µM

Compound: Cc1cccc(C#Cc2ccccc2)n1 [MPEP, 2-Methyl-6-(phenylethynyl)pyridine]
- Cell viability (efficacy, %) SNB-19 ([1]; ZIKV-infected SNB-19 cells): 0.0%
- IC50 [2, 3]: 4.11 µM
- Emax [2, 3]: 96.1%

Compound: Flurbiprofen axetil
- Cell viability (efficacy, %) SNB-19 ([1]; ZIKV-infected SNB-19 cells): 0.0%
- Caspase 3 (efficacy, %) NPCs ([2]; ZIKV-infected hNPCs): 0.0%

Compound: CN1CCN(c2cc3c(nn2)Oc2ccccc2N3C)CC1 [Pipofezine]
- Cell viability (efficacy, %) SNB-19 ([1]; ZIKV-infected SNB-19 cells): 0.0%
- IC50 [2, 3]: 12 µM
- Emax [2, 3]: 47.7%

Compound: CCC(C(=O)O)c1ccc(N2Cc3ccccc3C2=O)cc1 (stereo not shown) [Indobufen]
- Cell viability (efficacy, %) SNB-19 ([1]; ZIKV-infected SNB-19 cells): 0.0%
- IC50 [2, 3]: 6.15 µM
- Emax [2, 3]: 81.3%

Compound: O=C(OCc1ccccc1)c1ccc(O)cc1 [Benzylparaben]
- Cell viability (efficacy, %) SNB-19 ([1]; ZIKV-infected SNB-19 cells): 0.0%
- IC50 [2, 3]: 15.5 µM
- Emax [2, 3]: 56%

Compound: CC(C(=O)O)c1ccc(C(=O)c2ccccc2)s1 (stereo not shown) [Tiaprofenic acid]
- Cell viability (efficacy, %) SNB-19 ([1]; ZIKV-infected SNB-19 cells): 0.0%
- IC50 [2, 3]: 8.69 µM
- Emax [2, 3]: 86.7%

Compound: O=C(Nc1ccc([N+](=O)[O-])cc1Cl)c1cc(Cl)ccc1O [Niclosamide]
- IC50 [1, 4]: 1.95 µM
- IC50 [1, 5]: 1.95 µM
- Cell viability (efficacy, %) SNB-19 ([1]; ZIKV-infected SNB-19 cells): 97.3%
- IC50 [2, 3]: 1.84 µM
- Emax [2, 3]: 87.5%

Compound: O=C(O)CCC(=O)c1ccc(-c2ccccc2)cc1 [Fenbufen]
- Cell viability (efficacy, %) SNB-19 ([1]; ZIKV-infected SNB-19 cells): 0.0%
- IC50 [2, 3]: 19.5 µM
- Emax [2, 3]: 72.5%

Compound: O=C1NC(=O)/C(=C/c2ccc(-c3ccc(F)cc3O)o2)S1 [AS-252424]
- Cell viability (efficacy, %) SNB-19 ([1]; ZIKV-infected SNB-19 cells): 0.0%
- Caspase 3 (efficacy, %) NPCs ([2]; ZIKV-infected hNPCs): 52.3%
- IC50 ([2]; ZIKV-infected hNPCs): 1.64 µM

Compound: Cc1cc(O)c2c(c1)C(=O)c1cc(O)cc(O)c1C2=O [Emodin]
- Cell viability (efficacy, %) SNB-19 ([1]; ZIKV-infected SNB-19 cells): 0.0%
- IC50 [2, 3]: 2.59 µM
- Emax [2, 3]: 82.1%

Compound: O=C(O)c1ccccc1NCCc1ccccc1 [Enfenamic acid]
- Cell viability (efficacy, %) SNB-19 ([1]; ZIKV-infected SNB-19 cells): 0.0%
- IC50 [2, 3]: 21.8 µM
- Emax [2, 3]: 47.1%

Compound: CC(=O)Oc1cccc2c1C(=O)c1c(OC(C)=O)cc(C(=O)O)cc1C2=O [Diacerein]
- Cell viability (efficacy, %) SNB-19 ([1]; ZIKV-infected SNB-19 cells): 0.0%
- IC50 [2, 3]: 15.5 µM
- Emax [2, 3]: 56.5%

Compound: C/C1=C2/[N-][C@H]([C@H](CC(N)=O)[C@@]2(C)CCC(=O)NC[C@@H](C)OP(=O)([O-])O[C@H]2[C@@H](O)[C@@H](n3cnc4cc(C)c(C)cc43)O[C@@H]2CO)[C@]2(C)N=C(/C(C)=C3N=C(/C=C4N=C1[C@@H](CCC(N)=O)C\4(C)C)[C@@H](CCC(N)=O)[C@]\3(C)CC(N)=O)[C@@H](CCC(N)=O)[C@]2(C)CC(N)=O.[Co+3].[OH-] [Hydroxocobalamin]
- Cell viability (efficacy, %) SNB-19 ([1]; ZIKV-infected SNB-19 cells): 0.0%
- Caspase 3 (efficacy, %) NPCs ([2]; ZIKV-infected hNPCs): 67.4%
- IC50 ([2]; ZIKV-infected hNPCs): 0.87 µM

Compound: O=C1NC(=O)C(=Cc2ccc(-c3ccc(F)cc3)o2)S1 [CAY10505]
- Cell viability (efficacy, %) SNB-19 ([1]; ZIKV-infected SNB-19 cells): 0.0%
- Caspase 3 (efficacy, %) NPCs ([2]; ZIKV-infected hNPCs): 83.5%
- IC50 ([2]; ZIKV-infected hNPCs): 10.9 µM

Compound: COc1ccc(-c2cc(=S)ss2)cc1 [Anethole trithione]
- Cell viability (efficacy, %) SNB-19 ([1]; ZIKV-infected SNB-19 cells): 0.0%
- IC50 [2, 3]: 13 µM
- Emax [2, 3]: 70.3%

Compound: c1ccc2[nH]c(-c3cscn3)nc2c1 [Thiabendazole]
- Cell viability (efficacy, %) SNB-19 ([1]; ZIKV-infected SNB-19 cells): 0.0%
- IC50 [2, 3]: 9.75 µM
- Emax [2, 3]: 83.4%

Compound: O=C(c1ccccc1)c1ccc2n1CCC2C(=O)O (stereo not shown) [Ketorolac tromethamine]
- Cell viability (efficacy, %) SNB-19 ([1]; ZIKV-infected SNB-19 cells): 0.0%
- IC50 [2, 3]: 10.3 µM
- Emax [2, 3]: 75%

Compound: c1ccc(CCNc2nc(-c3ccccc3)cs2)cc1 [Fanetizole]
- Cell viability (efficacy, %) SNB-19 ([1]; ZIKV-infected SNB-19 cells): 0.0%
- IC50 [2, 3]: 14.6 µM
- Emax [2, 3]: 81.8%

Compound: O=C(Oc1ccccc1)c1cccc(C(=O)Oc2ccccc2)c1 [Diphenyl isophthalate]
- Cell viability (efficacy, %) SNB-19 ([1]; ZIKV-infected SNB-19 cells): 0.0%
- IC50 [2, 3]: 4.47 µM
- Emax [2, 3]: 89.4%

Compound: CCOCCOC(=O)C=Cc1ccc(OC)cc1 [2-Ethoxylethyl-p-methoxycinnamate]
- Cell viability (efficacy, %) SNB-19 ([1]; ZIKV-infected SNB-19 cells): 0.0%
- IC50 [2, 3]: 18.4 µM
- Emax [2, 3]: 56%

Compound: O=C(O)c1cc([N+](=O)[O-])ccc1NCCCc1ccccc1 [5-Nitro-2-(3-phenylpropylamino)benzoic acid]
- Cell viability (efficacy, %) SNB-19 ([1]; ZIKV-infected SNB-19 cells): 0.0%
- IC50 [2, 3]: 8.69 µM
- Emax [2, 3]: 59.8%

Compound: Nc1nc2ccc([N+](=O)[O-])cc2s1 [2-Amino-6-nitrobenzothiazole]
- Cell viability (efficacy, %) SNB-19 ([1]; ZIKV-infected SNB-19 cells): 0.0%
- IC50 [2, 3]: 56.2 µM
- Emax [2, 3]: 57.1%
